In patent US10428115B2, “Dynorphin A analogs with bradykinin receptors specificity for modulation of neuropathic pain” (THE ARIZONA BOARD OF REGENTS ON BEHALF OF THE UNIVERSITY OF …, priority 2013, dated 2019):

Experiments:
[1] = tested on: naive rats; test: Motor function and paralysis after intrathecal injection (hindlimb tests, tail-flick) in naive rats; format: in vivo, rat
Description: Intrathecal (i.th.) catheterization. While under ketamine/xylazine (80/12 mg/kg, i.p.) anesthesia, some groups of rats were implanted with i.th. catheters (polyethylene 10, 7.8 cm) through atlanto-occipital membrane extended to the level of the lumbar spinal cord for drug administration. Animals were allowed to recover for 7 days. Drugs were injected in a volume of 5 μl, followed by a 1 μl air bubble and a 9 μl saline flush.
Tail-flick test. The hot-water tail-flick test was performed by placing the distal third of the tail in a water bath maintained at 52° C. The latency until tail withdrawal from the bath was determined and compared among the treatments. A 10 sec cutoff was used to avoid tissue damage. Data were converted to percentage of antinociception by the following formula: (response latency−baseline latency)/(cutoff−baseline latency)*100.

[2] = Rotarod experiment
[3] = Stability in plasma (t1/2)
[4] = tested on: bradykinin-induced plasma extravasation; test: Bradykinin-induced rat paw oedema and plasma extravasation, intraplantar injection; format: in vivo
Description: Experiments were conducted on non-fasted male Sprague-Dawley rats (250-300 g) kept in a room controlled for temperature (22±2° C.) and illumination (12 h on and 12 h off). Under ketamine/xylazine (80/12 mg/kg, i.p.) anesthesia animals received an injection of Evans Blue (30 mg/mL/kg, i.v.) via tail vein and baseline paw volume for both hindpaws was measured by use of a plethysmometer (Ugo Basile). Animals then received 0.1 mL i.pl. injections in one hindpaw of normal saline (0.9% NaCl) containing BK either alone or mixed with HOE140 or LYS1044 (10 nmol/paw each). The contralateral paw received 0.1 mL saline and was used as a control. Oedema was measured at several 30, 60 and 90 min post i.pl. injections and expressed in mL as the difference (mL) between the test and control paws. Three hours post BK injections, animals were sacrificed and patches (10×5 mm) of the dorsal skin from both hindpaws were collected. The skin patches were then incubated separately in Eppendorf tubes containing 1.8 mL formamide at 60° C. water bath for 24 h to extract the dye. The tissue extraction was then centrifuged at 15000 rpm for 15 min and the supernatant was pipetted to a 96 well plate as triplicates and the absorbance was determined at 620 nm. The difference of the mean absorbance between the two hindpaws of each rat was used to compare the degree of plasma extravasation in different treatment groups.

[5] = tested on: SNL rats; test: Reversal of thermal hyperalgesia and tactile hypersensitivity in SNL rats (neuropathic pain model); format: in vivo, rat

Question: What does the source list for `CC[C@H](C)[C@H](NC(=O)[C@H](CCCNC(=N)N)NC(=O)[C@H](CC(C)C)NC(=O)[C@@H](N)Cc1ccccc1)C(=O)N[C@@H](CCCNC(=N)N)C(=O)N1CCC[C@H]1C(=O)N[C@@H](CCCCN)C(=O)O` [LYS1044, Phe-Leu-Arg-Ile-Arg-Pro-Lys]?
Answer: motor function after intrathecal (spinal) injection ([1]; intrathecal injection, naive rats): does not produce motor impairment; prevention of dynorphin A-(2-13)-induced paralysis ([1]; spinal administration): prevents dynorphin A-(2-13)-induced paralysis; toxic effect on rotarod experiment [2]: no toxic effect; half-life [3]: < 3 h; changes in paw volume [4]: does not show changes in paw volume; prevention of bradykinin-induced plasma extravasation [4]: does not prevent bradykinin-induced plasma extravasation; anti-allodynic effect ([5]; tactile hypersensitivity): anti-allodynic effects; anti-hyperalgesic effect ([5]; thermal hyperalgesia): dose dependent anti-hyperalgesic
